Reference: patent US9120780B2, “Indole or indazole derivative or salt thereof” (TAIHO PHARMACEUTICAL CO., LTD., priority 2011, dated 2015)

Key:
[1] = system: SK-BR-3 cells; experiment: Measurement of cell growth inhibition (crystal violet staining); type: cell-based; settings: Homo sapiens, 72 hours culture with test substance
Procedure: Cell growth was measured by a crystal violet staining method. […] The cells were cultured in a 5% CO2 incubator at 37° C. for 24 hours, and then test substances were added to the plate, followed by culturing for further 72 hours. […] The plate was left to stand at room temperature for 20 minutes for staining the cells. The plate was washed with water and dried, and 100 μL of a mixed solution of 0.05 M NaH2PO4 and ethanol (mixture in equal amounts) was added to each well. The absorbance at 540 nm was measured with a microplate reader (MTP-450, Corona Electric Co., Ltd.) as an index of the number of cells in each well. The inhibition rate (%) of cell growth by a compound of the present invention was determined by the following equation using the absorbance of a drug-untreated group (control) as a control. […] Inhibition rate (%)=(C−T)/C×100 T: absorbance in a well to which a test substance was added C: absorbance in a well to which no test substance was added

[2] = target: human HSP90 alpha protein (N-terminal, amino acids 2-236) (Homo sapiens (Human), UniProt P07900); experiment: Measurement of HSP90-binding activity (AlphaScreen competitive assay, biotin-labeled geldanamycin); settings: inhibition of biotin-labeled geldanamycin binding to purified HSP90; read-out: HSP-binding activity IC50
Procedure: First, a solution of purified HSP90 was prepared as follows. […] The pET-HSP90N was introduced into Escherichia coli cells (BL21 (DE3), Stratagene Inc.), and then the Escherichia coli cells were cultured in the presence of 0.5 mM isopropyl-beta-D-thiogalactopyranoside (Sigma-Aldrich Corp.) at 37° C. for 4 hours. The Escherichia coli cells were collected, suspended in a lysis buffer (50 mM Tris-HCl (pH 7.5), 200 mM NaCl), and sonicated. The sonicated cell solution was centrifuged (40,000×g, 20 minutes) to obtain supernatant as a crude extract. The crude extract was fractionated by Ni Sepharose High Performance (GE Healthcare Japan Corporation) chromatography and HiLoad 26/60 Superdex 75 pg (GE Healthcare Japan Corporation), and the fraction in which HSP90 protein was concentrated was prepared so as to be a 50 mM Tris-HCl (pH 7.5)/20% glycerol solution as a purified HSP90 solution. The purified HSP90 solution was divided and stored at −80° C. until use.
The HSP90-binding activity was measured by an AlphaScreen competitive assay system. […] After reaction at room temperature for 2 hours, biotin-labeled geldanamycin was added to each reaction solution in an amount of 40 nM, followed by reaction for further 1 hour. […] After reaction in a dark place at room temperature for 1 hour, the fluorescence intensity in each well was measured with a multilabel plate reader, EnVision (Perkin Elmer, Inc.). The inhibition rate (%) of biotin-labeled geldanamycin binding by a compound of the present invention was determined by the following equation using the fluorescence signal of a test substance-free group (control) as a control. […] Inhibition rate (%)=(C−T)/C×100 T: signal in a well to which a test substance was added C: signal in a well to which no test substance was added

[3] = system: Human gastric cancer cells (NCI-N87); experiment: Antitumor effect in subcutaneous transplantation model of human gastric cancer cell line NCI-N87; type: in vivo, nude mice; settings: for anti-tumor effect versus comparative compounds 6 and 7 at the same dose (RTV on day 15): 2 mg/kg/day oral for all compounds, Student-t test; for inhibition of tumor growth (relative tumor volume, FIG. 1): 2 mg/kg/day orally once per day for 14 days, nude mice, NCI-N87; for anti-tumor effect versus comparative compounds 6 and 7 at increased dose (RTV): Examples at 2 mg/kg/day oral, comparative compounds 6 and 7 at 10 mg/kg/day
Procedure: Human gastric cancer cells (NCI-N87) (obtained from ATCC) were subcutaneously transplanted in nude mice, and at the time when the tumor volume of the nude mice in which the cancer cells had been survived became approximately 140 to 210 mm^3, stratified randomization was performed so that the average tumor volume of each group (6 animals were assigned to one group (grouping: on day 0)) became uniform. The compounds 1, 6, and 9 of the present invention and the comparative compounds 6 (the compound of Example 21 in WO 2010/106290) and 7 (the compound of Example 1 in WO 2010/106290) were orally administered daily once per day from day 1 for 14 days. Note that the comparative compounds were synthesized according to the method described in WO 2010/106290 (Table 22).
The doses of 2 mg/kg/day and 10 mg/kg/day were used for the comparative compounds 6 and 7, and the dose of 2 mg/kg/day was used for the compounds of Examples of 1, 6, and 9 of the present invention.
In order to compare the transition over time of the tumor growth in the administration of each test compound, the relative tumor volume (RTV) was calculated according to the following equation when the tumor volume on the grouping day was defined as 1 for the growth rate of tumor, and the transition of the average value of the RTV of each individual was shown in FIG. 1. RTV=(Tumor volume on tumor volume measurement day)/(Tumor volume when grouped) (Mathematical Formula 1)

Question: How did the IC50 [1] turn out when `CC(C)c1nn(-c2ccc(C(N)=O)c(NC(C)(C)C)c2)c2cccc(-n3cnc(-c4cccnc4)c3)c12` [Example 1, 2-(Tert-butylamino)-4-(3-isopropyl-4-(4-(pyridin-3-yl)-1H-imidazol-1-yl)-1H-indazol-1-yl)benzamide] was run?
Answer: The IC50 was 20 nM.

Question: What about the IC50 [2] of the same molecule?
Answer: Its IC50 is 170 nM.

Question: And the “anti-tumor effect versus comparative compounds 6 and 7 at the same dose (RTV on day 15)” value [3]?
Answer: The value was “significantly stronger anti-tumor effects than the comparative compounds 6 and 7”.

Question: What about the “inhibition of tumor growth (relative tumor volume, FIG. 1)” value [3] of the same molecule?
Answer: Its value is “inhibited the tumor growth within one week from the start of the administration”.

Question: What about the “anti-tumor effect versus comparative compounds 6 and 7 at increased dose (RTV)” value [3] of the same molecule?
Answer: Its value is “significantly stronger anti-tumor effect than any of the comparative compounds 6 and 7”.

Question: Which IC50 [1] does the source give for `CCc1cc(C(N)=O)ccc1-n1nc(C(C)C)c2c(-n3cnc(-c4cnn(C)c4)c3)cccc21` [Example 6, 3-Ethyl-4-(3-isopropyl-4-(4-(1-methyl-1H-pyrazol-4-yl)-1H-imidazol-1-yl)-1H-indazol-1-yl)benzamide] here?
Answer: Its IC50 is 30 nM.

Question: What about the IC50 [2] of the same molecule?
Answer: Its IC50 is 100 nM.

Question: What about the “anti-tumor effect versus comparative compounds 6 and 7 at the same dose (RTV on day 15)” value [3] of the same molecule?
Answer: The value was “significantly stronger anti-tumor effects than the comparative compounds 6 and 7”.

Question: And the “inhibition of tumor growth (relative tumor volume, FIG. 1)” value [3]?
Answer: The value was “inhibited the tumor growth within one week from the start of the administration”.

Question: What about the “anti-tumor effect versus comparative compounds 6 and 7 at increased dose (RTV)” value [3] of the same molecule?
Answer: Its value is “significantly stronger anti-tumor effect than any of the comparative compounds 6 and 7”.

Question: Which IC50 [1] does the source give for `CC(C)c1nn(-c2ccc(C(N)=O)c(NC(C)(C)C)c2)c2cccc(-n3cnc(-c4cnn(C)c4)c3)c12` [Example 9, 2-(Tert-butylamino)-4-(3-isopropyl-4-(4-(1-methyl-1H-pyrazol-4-yl)-1H-imidazol-1-yl)-1H-indazol-1-yl)benzamide] here?
Answer: Its IC50 is 10 nM.

Question: And the IC50 [2]?
Answer: The IC50 was 260 nM.

Question: What about the “anti-tumor effect versus comparative compounds 6 and 7 at the same dose (RTV on day 15)” value [3] of the same molecule?
Answer: Its value is “significantly stronger anti-tumor effects than the comparative compounds 6 and 7”.

Question: What about the “inhibition of tumor growth (relative tumor volume, FIG. 1)” value [3] of the same molecule?
Answer: The value was “inhibited the tumor growth within one week from the start of the administration”.

Question: What about the “anti-tumor effect versus comparative compounds 6 and 7 at increased dose (RTV)” value [3] of the same molecule?
Answer: Its value is “significantly stronger anti-tumor effect than any of the comparative compounds 6 and 7”.

Question: For `CCc1cn(-c2ccc(C(N)=O)c(NC(C)(C)C)c2)c2cccc(-n3cnc(-c4cnn(C)c4)c3)c12` [Example 48, 2-(Tert-butylamino)-4-{3-ethyl-4-(4-(1-methyl-1H-pyrazolo-4-yl)-1H-imidazolo-1-yl)-1H-indol-1-yl}benzamide], which IC50 [1] is on record?
Answer: The IC50 was 10 nM.

Question: What about the IC50 [2] of the same molecule?
Answer: Its IC50 is 260 nM.

Question: With `CCCc1cn(-c2ccc(C(N)=O)cc2CC)c2cccc(-n3cnc(-c4cnn(C)c4)c3)c12` [Example 49, 3-Ethyl-4-{4-(4-(1-methyl-1H-pyrazolo-4-yl)-3-propyl-1H-imidazolo-1-yl)-1H-indol-1-yl}benzamide] as the molecule, how does the IC50 [1] read?
Answer: The IC50 was 30 nM.

Question: And the IC50 [2]?
Answer: Its IC50 is 120 nM.

Question: Which results are given for `CCc1cc(C(N)=O)ccc1-n1cc(C(C)C)c2c(-n3cnc(-c4cnn(C)c4)c3)cccc21` [Example 51, 3-Ethyl-4-{3-isopropyl-4-(4-(1-methyl-1H-pyrazolo-4-yl)-1H-imidazolo-1-yl)-1H-indol-1-yl}benzamide]?
Answer: IC50 [1]: 60 nM; IC50 [2]: 160 nM

Question: Which results are given for `CC(C)c1cn(-c2ccc(C(N)=O)c(NC(C)(C)C)c2)c2cccc(-n3cnc(-c4cnn(C)c4)c3)c12` [Example 52, 2-(Tert-butylamino)-4-{3-isopropyl-4-(4-(1-methyl-1H-pyrazolo-4-yl)-1H-imidazolo-1-yl)-1H-indol-1-yl}benzamide]?
Answer: IC50 [1]: 20 nM; IC50 [2]: 420 nM
